Measured values reported in patent US9249148B2, “Tris(hetero)arylpyrazoles and use thereof” (AICURIS GMBH & CO. KG, priority 2012, dated 2016).

Legend:
Type in all cases: cell-based
HIV-1LAI wildtype = assay: alamarBlue Viability Assay with HIV-1LAI-infected MT4 cells; conditions: Human immunodeficiency virus 1, 10% FBS
Method: For starting a 96-well MTP, 3 million PBLs are pelleted, suspended in 1 ml RPMI 1640 medium/10% FBS/2 mM L-glutamine/1% Pen/Strep and incubated for 2 hours at 37° C. with a suitable quantity of the relevant HIV-1LAI (NIH AIDS Research & Reference Reagent Program, Germantown, USA) (pellet infection). Non-adsorbed viruses are then washed out, and the infected cells pelleted again and suspended in 18 ml RPMI 1640 medium/10% FBS/2 mM L-glutamine/1% Pen/Strep/Interleukin-2 (40 U/ml). From this, 180 μl per well is pipetted into a 96-well MTP to 20 μl of test substance at a suitable level of dilution. Alternatively, the HIV is added after preparation of the substance dilutes in the MTP together with the cells, and is not washed out (supernatant infection). In order to avoid edge effects, the edge wells of the MTP are not used for substance dilutions. The second vertical row of the MTP contains only infected cells (virus control) and the eleventh vertical row only non-infected cells (cell control), each in RPMI 1640 medium/10% FBS/2 mM L-glutamine/1% Pen/Strep/Interleukin-2 (40 U/ml). The remaining wells of the MTP contain the compounds in accordance with the invention in various concentrations, starting from the third vertical row, from which the test substances are diluted in 3-step sequences up to the tenth vertical row by a factor of 3^7. The test substances are dissolved in DMSO; the final DMSO concentration in the test preparation is 1%. The test samples are incubated for 5 days at 37° C./5% CO2. After 5 to 7 days, 50 μl of cell-free supernatant is removed from each well to determine its p24 content using p24 ELISA (HIV-1 p24CA Antigen Capture Assay Kit, NCI-Frederick Cancer Research and Development Center, Frederick, USA). From the resulting values of the photometric analysis (450/620 nm), the EC50 values of the test substances are determined from the resulting dose-response curves using the Prism4 software (GraphPad, San Diego, Calif.) as the concentration of treated infected cells, where the p24 quantity is 50% of the untreated infected cells.
Alternatively, MT4 cells are used in place of PBLs for testing the test substances. HIV-1LAI-infected MT4 cells (MOI 0.01, supernatant infection) are incubated in accordance with the procedure described above in RPMI 1640 medium using 2% or 10% FKS/2 mM L-glutamine/1% Pen/Strep in the presence of the test substances for 5 days at 37° C./5% CO2 (10 μl diluted substance and 90 μl cells/virus per well). 10 μl alamarBlue (Invitrogen, Karlsruhe, Germany) is then added per well and the MTPs are incubated for 3 hours at 37° C. before fluorimetric evaluation is performed (544/590 nm). Using quattroWorkflow software (Quattroresearch, Martinsried, Germany), the EC50 values of the test substances are determined from the resulting dose-response curves as the concentration of treated infected cells in which the fluorescence is 50% of that of the untreated, non-infected cells.

HIV-1NL4-3 K103N-Y181C = assay: Luminescence Reduction Assay, luciferase reporter virus with resistance mutations in MT4 cells; conditions: Human immunodeficiency virus 1, MT4, read-out: EC50 (μM) MT4 cells HIV-1NL4-3 K103N-Y181C 2% FBS
Description: (§1) For this assay, HIV-1NL4-3 reporter viruses are used which carry the luciferase164 gene (lu164) in place of the nef gene. The viruses are generated by transfection of 293T cells with the corresponding proviral pNL4-3 plasmid (Lipofectamine Reagent, Invitrogen, Karlsruhe, Germany). Starting from the proviral plasmid DNA, viruses with defined resistance mutations (single or combined) are produced in the reverse transcriptase gene using the “QuikChange II XL Site-Directed Mutagenesis Kit” (Stratagene, Cedar Creek, Tex., USA). Resistance mutations include, among others: L74V, A98G, A98S, L100I, K101E, K103N, V106A, V106I, V106M, V108I, V108A, E138K, V179I, V179D, V179E, Y181C, Y181I, Y188L, G190A, G1905, H221Y, P225H, F227C, F227L, F227V, M230I, M230L, L234I, P236L, N348I, T369A, T369I, T369V. MT4 cells infected with these reporter viruses (NIH AIDS Research and Reference Reagent Program) secrete luciferase into the medium, which enables the luminometric quantification of the virus replication.
(§2) For starting a 96-well MTP, 3 million MT4 cells are pelleted, suspended in 1 ml RPMI 1640 medium without phenol red (Invitrogen, Karlsruhe, Germany)/10% FBS/2 mM L-glutamine/1% Pen/Strep (Invitrogen, Karlsruhe, Germany), and incubated for 2 hours at 37° C. with a suitable quantity of the relevant HIV-1NL4-3 reporter virus (pellet infection). Non-adsorbed viruses are then washed out, and the infected cells are pelleted again and suspended in 8 ml RPMI 1640 medium without phenol red/2% or 10% FBS/2 mM L-glutamine/1% Pen/Strep. From this, 90 μl per well is pipetted into a white 96-well MTP to 10 μl of test substance at a suitable level of dilution. In order to avoid edge effects, the edge wells of the MTP are not used for substance dilutions. The second vertical row of the MTP contains only infected cells (virus control) and the eleventh vertical row only non-infected cells (cell control), each in RPMI 1640 medium without phenol red/2% or 10% FBS/2 mM L-glutamine/1% Pen/Strep. The remaining wells of the MTP contain the compounds in accordance with the invention in various concentrations, starting from the third vertical row, from which the test substances are diluted in 3-step sequences up to the tenth vertical row by a factor of 3^7. The test substances are dissolved in DMSO; the final DMSO concentration in the test formulation is 1%.

HIV-1NL4-3 wildtype = assay: Luminescence Reduction Assay, luciferase reporter virus in MT4 cells; conditions: Human immunodeficiency virus 1, MT4, read-out: EC50 (μM) MT4 cells HIV-1NL4-3 wildtype 2% FBS
Description: as §1, §2

SMILES	EC50 (HIV-1LAI wildtype)	EC50 (HIV-1NL4-3 K103N-Y181C)	EC50 (HIV-1NL4-3 wildtype)
O=C1NCc2c1ccnc2-c1cc(-c2cc(F)cc(Cl)c2)n(-c2ccc(F)c(Cl)c2)n1 [Example 1, 4-[1-(3-chloro-4-fluorophenyl)-5-(3-chloro-5-fluorophenyl)-1H-pyrazole-3-yl]-2,3-dihydro-1H-pyrrolo[3,4-c]pyridine-1-one]	0.0097 µM	0.004 µM	0.0015 µM
O=C1NCc2c1ccnc2-c1cc(-c2cc(F)cc(Cl)c2)n(-c2cccnc2)n1 [Example 2, 4-[5-(3-chloro-5-fluorophenyl)-1-(pyridine-3-yl)-1H-pyrazole-3-yl]-2,3-dihydro-1H-pyrrolo[3,4-c]pyridine-1-one]	0.0063 µM	0.0132 µM	0.0013 µM
O=C1NCc2c1cccc2-c1cc(-c2cc(F)cc(Cl)c2)n(-c2ccc(F)c(Cl)c2)n1 [Example 3, 4-[1-(3-chloro-4-fluorophenyl)-5-(3-chloro-5-fluorophenyl)-1H-pyrazole-3-yl]-2,3-dihydro-1H-isoindole-1-one]	0.0586 µM	0.0289 µM	0.006 µM
O=C1NCc2c1cccc2-c1cc(-c2cc(F)cc(Cl)c2)n(-c2cccnc2)n1 [Example 4, 4-[5-(3-chloro-5-fluorophenyl)-1-(pyridine-3-yl)-1H-pyrazole-3-yl]-2,3-dihydro-1H-isoindole-1-one]	0.0155 µM	0.042 µM	0.0055 µM
O=C1NCc2c1ccnc2-c1cc(-c2cc(F)cc(OC(F)(F)F)c2)n(-c2ccc(F)c(Cl)c2)n1 [Example 5, 4-{1-(3-chloro-4-fluorophenyl)-5-[3-fluoro-5-(trifluoromethoxy)phenyl]-1H-pyrazole-3-yl}-2,3-dihydro-1H-pyrrolo[3,4-c]pyridine-1-one]	0.15 µM	0.0117 µM	0.011 µM
O=C1NCc2c1ccnc2-c1cc(-c2cc(F)cc(OC(F)(F)F)c2)n(-c2cccnc2)n1 [Example 6, 4-{5-[3-fluoro-5-(trifluoromethoxy)phenyl]-1-(pyridine-3-yl)-1H-pyrazole-3-yl}-2,3-dihydro-1H-pyrrolo[3,4-c]pyridine-1-one]	0.0137 µM	0.0083 µM	0.0024 µM
O=C1NCc2c1cccc2-c1cc(-c2cc(F)cc(OC(F)(F)F)c2)n(-c2cccnc2)n1 [Example 7, 4-{5-[3-fluoro-5-(trifluoromethoxy)phenyl]-1-(pyridine-3-yl)-1H-pyrazole-3-yl}-2,3-dihydro-1H-isoindole-1-one]	0.0512 µM	0.0206 µM	0.0107 µM
O=C1NC(=O)c2c1cccc2-c1cc(-c2cc(F)cc(OC(F)(F)F)c2)n(-c2cccnc2)n1 [Example 8, 4-{5-[3-fluoro-5-(trifluoromethoxy)phenyl]-1-(pyridine-3-yl)-1H-pyrazole-3-yl}-1H-isoindole-1,3(2H)-dione]	> 3.3 µM	> 3.3 µM	0.643 µM
O=C1NCc2c1ccnc2-c1cc(-c2cc(Cl)cc(OC(F)(F)F)c2)n(-c2ccc(F)c(Cl)c2)n1 [Example 9, 4-{1-(3-chloro-4-fluorophenyl)-5-[3-chloro-5-(trifluoromethoxy)phenyl]-1H-pyrazole-3-yl}-2,3-dihydro-1H-pyrrolo[3,4-c]pyridine-1-one]	0.0768 µM	0.0176 µM	0.0128 µM
O=C1NCc2c1ccnc2-c1cc(-c2cc(Cl)cc(OC(F)(F)F)c2)n(-c2cccnc2)n1 [Example 10, 4-{5-[3-chloro-5-(trifluoromethoxy)phenyl]-1-(pyridine-3-yl)-1H-pyrazole-3-yl}-2,3-dihydro-1H-pyrrolo[3,4-c]pyridine-1-one]	0.008 µM	0.0027 µM	0.0012 µM
O=C1NCc2c1cccc2-c1cc(-c2cc(Cl)cc(OC(F)(F)F)c2)n(-c2cccnc2)n1 [Example 11, 4-{5-[3-chloro-5-(trifluoromethoxy)phenyl]-1-(pyridine-3-yl)-1H-pyrazole-3-yl}-2,3-dihydro-1H-isoindole-1-one]	0.0663 µM	0.024 µM	0.0091 µM
O=C1NCc2c1ccnc2-c1cc(-c2cc(Br)cc(OC(F)(F)F)c2)n(-c2ccc(F)c(Cl)c2)n1 [Example 12, 4-{5-[3-bromo-5-(trifluoromethoxy)phenyl]-1-(3-chloro-4-fluorophenyl)-1H-pyrazole-3-yl}-2,3-dihydro-1H-pyrrolo[3,4-c]pyridine-1-one]	0.0974 µM	0.012 µM	0.0089 µM
O=C1NCc2c1ccnc2-c1cc(-c2cc(Br)cc(OC(F)(F)F)c2)n(-c2cccnc2)n1 [Example 13, 4-{5-[3-bromo-5-(trifluoromethoxy)phenyl]-1-(pyridine-3-yl)-1H-pyrazole-3-yl}-2,3-dihydro-1H-pyrrolo[3,4-c]pyridine-1-one]	0.0086 µM	0.0025 µM	0.0011 µM
O=C1NCc2c1ccnc2-c1cc(-c2cc(F)cc(OC(F)F)c2)n(-c2cccnc2)n1 [Example 14, 4-{5-[3-(difluoromethoxy)-5-fluorophenyl]-1-(pyridine-3-yl)-1H-pyrazole-3-yl}-2,3-dihydro-1H-pyrrolo[3,4-c]pyridine-1-one]	0.0053 µM	0.0097 µM	0.001 µM
O=C1NCc2c1ccnc2-c1cc(-c2cc(F)cc(OC(F)F)c2)n(-c2ccc(F)c(Cl)c2)n1 [Example 15, 4-{1-(3-chloro-4-fluorophenyl)-5-[3-(difluoromethoxy)-5-fluorophenyl]-1H-pyrazole-3-yl}-2,3-dihydro-1H-pyrrolo[3,4-c]pyridine-1-one]	0.0171 µM	0.0085 µM	0.0044 µM
O=C1NCc2c1ccnc2-c1cc(-c2cc(Cl)cc(OC(F)F)c2)n(-c2cccnc2)n1 [Example 16, 4-{5-[3-chloro-5-(difluoromethoxy)phenyl]-1-(pyridine-3-yl)-1H-pyrazole-3-yl}-2,3-dihydro-1H-pyrrolo[3,4-c]pyridine-1-one]	0.0023 µM	0.0026 µM	0.0005 µM
O=C1NCc2c1ccnc2-c1cc(-c2cc(Cl)cc(OC(F)F)c2)n(-c2ccnc(Cl)c2)n1 [Example 17, 4-{5-[3-chloro-5-(difluoromethoxy)phenyl]-1-(2-chloropyridine-4-yl)-1H-pyrazole-3-yl}-2,3-dihydro-1H-pyrrolo[3,4-c]pyridine-1-one]	0.0086 µM	0.0049 µM	0.0011 µM
